This note sets out measurements from ChEMBL document CHEMBL1201862, “PubChem BioAssay data set” (2004).

Among the test systems are A498; A549; ACHN; BT-549; HOP-62; HOP-92; K562; KM12; LOX IMVI; NCI-H226; NCI-H460; OVCAR-5; PC-3; RPMI-8226; RXF 393; SF-268; SK-OV-3; TK-10; HL-60.
Common to all, as to assay: DTP human tumour cell line panel, 48 h

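48-hour exposure; five concentrations; linearly interpolated endpoints. Abbreviation: GI50, concentration required for 50% inhibition of growth.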 Calls of active or inactive are those of the source. Rule as the data show it: active = GI50 up to about 1.1 µM and inactive = higher.

Take `COc1cc2nc3c(=C(C#N)C#N)c4ccccc4n3c(=O)c2cc1OC`: the GI50 with A498 was > 100 µM (inactive); with A549, > 100 µM (inactive); in the assay with ACHN, > 100 µM (inactive); in the assay with BT-549, > 100 µM (inactive); with HOP-62, > 100 µM (inactive); in the assay with HOP-92, 36.5 µM (inactive). Besides, the GI50 in the assay on K562, with KM12, in the assay with LOX IMVI, in the assay with NCI-H226, with NCI-H460 and in the assay on OVCAR-5 was > 100 µM (inactive) throughout. The GI50 in the assay with PC-3 is > 100 µM (inactive); in the assay with RPMI-8226 it was > 100 µM (inactive); in the assay with RXF 393, > 100 µM (inactive); with SF-268, 75.7 µM (inactive); in the assay on SK-OV-3, > 100 µM (inactive); with TK-10, > 100 µM (inactive).
`Cn1c(=O)[nH]n(-c2ccc3ccccc3c2)c1=O`: the GI50 in the assay with A498, in the assay on A549, in the assay with ACHN, with BT-549, in the assay on HL-60 and with HOP-92 was > 100 µM (inactive) in each case. The GI50 in the assay with K562, in the assay on KM12, in the assay on LOX IMVI, with NCI-H226, in the assay with NCI-H460 and in the assay on OVCAR-5 was > 100 µM (inactive) throughout. The GI50 with PC-3, with RPMI-8226, with RXF 393, in the assay with SF-268, with SK-OV-3 and with TK-10 was > 100 µM (inactive) throughout.
`CC(=O)Oc1ccn2nc(C)c(Br)c2c1Br`: the GI50 is 25.1 µM (inactive) with A498; 23.1 µM (inactive) in the assay with A549; 17.6 µM (inactive) in the assay on ACHN; 26 µM (inactive) in the assay on BT-549; 29 µM (inactive) in the assay on HL-60; 44.4 µM (inactive) in the assay on HOP-62. In addition, the GI50 was 19.4 µM (inactive) in the assay on HOP-92; 24.5 µM (inactive) in the assay on K562; 33.7 µM (inactive) with KM12; 18.4 µM (inactive) with LOX IMVI; > 43.9 µM (inactive) in the assay on NCI-H226; 21.5 µM (inactive) in the assay with NCI-H460. Besides, the GI50 in the assay on PC-3 was 18.4 µM (inactive); in the assay with RXF 393 it was > 10 µM (inactive); in the assay with SF-268, 25.5 µM (inactive); in the assay on TK-10 it was 45 µM (inactive).
Turning to `Oc1ccccc1/C=N/Nc1nc(N/N=C/c2ccccc2O)nc(N/N=C/c2ccccc2O)n1`, the GI50 in the assay with A498 is > 100 µM (inactive); in the assay on A549, > 100 µM (inactive); in the assay with ACHN, 69.7 µM (inactive); in the assay on BT-549 it was 85.3 µM (inactive); with HL-60, > 100 µM (inactive); in the assay with HOP-62, 44.6 µM (inactive). In addition, the GI50 was 21.1 µM (inactive) with HOP-92; > 100 µM (inactive) in the assay with K562; > 100 µM (inactive) with KM12; > 100 µM (inactive) in the assay with LOX IMVI; 58.7 µM (inactive) in the assay on NCI-H226; 44.8 µM (inactive) with NCI-H460. Also, the GI50 in the assay with OVCAR-5 is > 100 µM (inactive); in the assay with PC-3, 78.2 µM (inactive); in the assay on RXF 393, 87.1 µM (inactive); in the assay with SF-268 it was > 100 µM (inactive); in the assay with SK-OV-3, 71.9 µM (inactive); in the assay with TK-10, > 100 µM (inactive).
Take `COC(=O)C1=CC2C(=O)c3ccccc3C1(c1ccccc1)N2C1CCCCC1` (configuration not stated): the GI50 in the assay with A498 is 26.7 µM (inactive); with A549, 20 µM (inactive); with ACHN, 16.2 µM (inactive); in the assay with BT-549 it was 22.6 µM (inactive); with HL-60, 11.6 µM (inactive); with HOP-62, 16.7 µM (inactive). The GI50 was 22.6 µM (inactive) in the assay with HOP-92; 4.63 µM (inactive) in the assay on K562; 14.3 µM (inactive) with KM12; 15.5 µM (inactive) in the assay on LOX IMVI; 24.7 µM (inactive) in the assay with NCI-H226; 14.8 µM (inactive) in the assay with NCI-H460. The GI50 in the assay with OVCAR-5 is 32.3 µM (inactive); in the assay on PC-3 it was 9.62 µM (inactive); in the assay on RXF 393, 7.87 µM (inactive); in the assay on SF-268 it was 27.2 µM (inactive); in the assay with SK-OV-3 it was 31 µM (inactive); with TK-10, 30.1 µM (inactive).
Regarding `c1ccc2cc(CNCCCCNCCCNCc3ccc4ccccc4c3)ccc2c1`, the GI50 was 1.99 µM (inactive) in the assay on A498; 1.62 µM (inactive) in the assay on A549; 1.42 µM (inactive) in the assay on ACHN; 1.78 µM (inactive) with BT-549; 1.61 µM (inactive) with HOP-62; 1.56 µM (inactive) in the assay with HOP-92. Further, the GI50 is 0.259 µM (active) in the assay with K562; 0.403 µM (active) with KM12; 0.202 µM (active) in the assay on LOX IMVI; 1.17 µM (inactive) in the assay on NCI-H226; 0.188 µM (active) in the assay with NCI-H460; 1.87 µM (inactive) with OVCAR-5. Besides, the GI50 is 1.63 µM (inactive) with PC-3; 0.226 µM (active) in the assay on RPMI-8226; 1.49 µM (inactive) in the assay with RXF 393; 1.41 µM (inactive) in the assay on SF-268; 1.76 µM (inactive) in the assay with SK-OV-3; 1.75 µM (inactive) with TK-10.
For `CC(C)=CCC[C@@H](C)/C=C/C=C(\C)C(=O)CC[C@@H]1CC[N@+]2(C)CCCC[C@H]12`, the GI50 is > 100 µM (inactive) in the assay with A498; > 100 µM (inactive) with A549; > 100 µM (inactive) in the assay with ACHN; 65.6 µM (inactive) in the assay on BT-549; > 100 µM (inactive) in the assay on HOP-62; 6.44 µM (inactive) with HOP-92. Moreover, the GI50 in the assay with K562 is 49.9 µM (inactive); with KM12, > 100 µM (inactive); in the assay with LOX IMVI, 35.2 µM (inactive); in the assay with NCI-H226 it was 4.47 µM (inactive); in the assay on NCI-H460, > 100 µM (inactive); in the assay on OVCAR-5, 50.4 µM (inactive). In addition, the GI50 in the assay with PC-3 was 31 µM (inactive); in the assay on RPMI-8226, 70 µM (inactive); with RXF 393 it was 35.1 µM (inactive); with SF-268 it was 71.1 µM (inactive); in the assay on TK-10, > 100 µM (inactive).
As for `CC1=CC(=O)N(n2c(Cc3ccc(Cl)cc3)n[nH]c2=O)C1=O`, the GI50 was 71.8 µM (inactive) in the assay with A498; 77.6 µM (inactive) with A549; 82 µM (inactive) in the assay with ACHN; 35.3 µM (inactive) with BT-549; 21.1 µM (inactive) in the assay with HOP-92; 23.3 µM (inactive) with K562. In addition, the GI50 with KM12 was 52.4 µM (inactive); in the assay on LOX IMVI it was 27.6 µM (inactive); in the assay with NCI-H226 it was > 100 µM (inactive); in the assay with NCI-H460, 36.1 µM (inactive); in the assay with OVCAR-5 it was > 100 µM (inactive); in the assay with PC-3, 26.4 µM (inactive). Also, the GI50 with RPMI-8226 is 22.6 µM (inactive); in the assay on RXF 393, 8.24 µM (inactive); with SF-268, 70.1 µM (inactive); with SK-OV-3, > 100 µM (inactive); in the assay with TK-10, 98.9 µM (inactive).
As to `CN(C)CCCn1nc(N)c2nc3cc(Cl)ccc3nc21`, the GI50 was 52.1 µM (inactive) in the assay with A498; 37.1 µM (inactive) with A549; 39.7 µM (inactive) in the assay on ACHN; > 100 µM (inactive) with BT-549; 55.3 µM (inactive) with HOP-62; 25.3 µM (inactive) in the assay on HOP-92. Moreover, the GI50 in the assay on K562 was > 76.2 µM (inactive); in the assay with KM12, 43.9 µM (inactive); in the assay with LOX IMVI, 34.8 µM (inactive); in the assay on NCI-H226, 45.2 µM (inactive); with NCI-H460 it was 39.3 µM (inactive); in the assay on OVCAR-5, 40.4 µM (inactive). Also, the GI50 in the assay on PC-3 was 41.4 µM (inactive); in the assay on RPMI-8226 it was 60.3 µM (inactive); in the assay with RXF 393, 30.6 µM (inactive); in the assay on SF-268, 58.1 µM (inactive); in the assay on SK-OV-3, > 100 µM (inactive); with TK-10, 54.7 µM (inactive).
For the compound `O=S(=O)(O)c1ccc2cccc(/N=N\c3c(O)ccc4ccccc34)c2c1`, the GI50 in the assay on A498, with A549, in the assay on ACHN, in the assay on BT-549, in the assay with HL-60 and in the assay with HOP-62 was > 100 µM (inactive) each time. Moreover, the GI50 in the assay on HOP-92, in the assay on K562, with KM12, in the assay with NCI-H226, with NCI-H460 and with OVCAR-5 was > 100 µM (inactive) in each case. The GI50 in the assay with PC-3, in the assay with RXF 393, with SF-268, with SK-OV-3 and with TK-10 was > 100 µM (inactive) in each case.
On to `Clc1ccc(C(Cc2cccc(Cl)c2)c2c(Cl)nc(N3CCNCC3)nc2Cl)cc1` (configuration not stated), for which the GI50 in the assay with A498 was 15.2 µM (inactive); in the assay with A549 it was 16 µM (inactive); in the assay with ACHN, 15.5 µM (inactive); in the assay with BT-549 it was 20.6 µM (inactive); in the assay on HL-60 it was 11.1 µM (inactive); with HOP-62 it was 15.4 µM (inactive). Further, the GI50 in the assay on HOP-92 was 13.9 µM (inactive); with K562, 12.6 µM (inactive); with KM12, 13.9 µM (inactive); with LOX IMVI, 12.9 µM (inactive); with NCI-H226, 3.12 µM (inactive); in the assay with NCI-H460, 16.7 µM (inactive). The GI50 with OVCAR-5 is 12.5 µM (inactive); in the assay with PC-3, 16.9 µM (inactive); with RPMI-8226 it was 22.3 µM (inactive); in the assay on SK-OV-3, 13.7 µM (inactive); with TK-10, 16.4 µM (inactive).

For orientation: GI50 means the concentration that inhibits growth by half.
